# Experimental data from patent US11754548B2, “Method of in vitro cellular assay, cell circuit board, and method of manufacturing cell circuit board” (RICOH COMPANY, LTD., priority 2019, dated 2023).
# Key:
# [1] = system: cell population A (Mixed Neurons from Healthy Donor) and cell population B (GABAergic Neurons from Healthy Donor), neural cells derived from iPS cells; experiment: Action potential measurement (MEA, MED64 system) of the cell circuit board with cell populations A and B connected via neurites, and after cutting the neurites, treated with drug (Example 2); format: cell-based
# Experimental: Two types of frozen neural cell which are derived from iPS cells (GABAergic Neurons from Healthy Donor and Mixed Neurons from Healthy Donor) and are commercially available from Elixirgen Scientific were suspended in a medium and plated on a board including an electrode of a multi-electrode array (MEA; SCREEN Holdings Co., Ltd.) coated with 0.05% polyethyleneimine ([…]; manufactured by Sigma) and a 80 μg/mL laminin solution (manufactured by Sigma) in advance. Synchronous firing of the neural cells was checked to be induced by formation of a network after 3 weeks of the culture. A cell population containing more excitable cells and presenting synchronous firing in a short cycle was designated as a cell population A, and a cell population containing many suppressor cells and presenting synchronous firing in a long cycle was designated as a cell population B.
# FIG. 4 is a diagram illustrating a test flow in Example 1. First, a board 5 to which partition members 8a and 8b, which are made of dimethylpolysiloxane (PDMS), and frame members 9a and 9b are respectively bonded was prepared so that a region including the cell population A (10) and a region including the cell population B (20) are separated. Next, on the board 5, two types of cell suspension each including the cell population A (10) and the cell population B (20) having different electrophysiological behaviors which were obtained in “1.” were plated in the respective regions surrounded by the frame members 9a and 9b while not mixing these cell populations. In a case where an area of the region was as large as more than 10 mm^2, respective cell suspensions were plated using a micropipette. In a case where an area was as small as 10 mm^2 or less, plating could not be performed manually, and therefore respective cell suspensions were plated using an ink jet bioprinter for cell discharge. […]
# The cell population A and the cell population B were cultured for 4 weeks in a state in which they were connected via neurites (a state in which a neural network was formed), and action potentials detectable from the electrodes were measured for 5 minutes with an MED64 system (SCREEN Holdings Co., Ltd.). An electrical waveform was analyzed using software, BurstScope included in the MED64 system. […]
# For respective cell populations in “2.” which were treated with the drug, action potentials detectable from the electrodes were measured for 5 minutes with the MED64 system. […]
# The neurites between the cell population A and the cell population B were then cut as illustrated in FIG. 4. After cutting, the cells were cultured for 10 minutes in a CO2 incubator and stabilized, and then the action potential was measured again. […]
# [2] = system: cell population A (iCell GABANeurons) and cell population B (GABAergic Neurons from Healthy Donor), neural cells derived from iPS cells; experiment: Action potential measurement (MEA, MED64 system) of the cell circuit board including an inhibitory GABAergic cell population, connected via neurites, treated with drug (Example 4); format: cell-based; conditions: 30 μM final concentration, 10 minutes at 37° C.; populations connected via neurites; FIG. 18
# Experimental: A cell circuit board in which the cell population A and the cell population B were disposed to be spaced apart from each other on the board was prepared using the same method as in Example 1 except that frozen neural cells which are derived from iPS cells (iCell GABANeurons) and are commercially available from Cellular Dynamics International were used as the cell population A, and the same cells as in Example 1 (GABAergic Neurons from Healthy Donor) were used as the cell population B.
# Using the same method as in Example 1, at the fourth week of the culture, action potentials detectable from the electrodes were measured for 5 minutes in a state in which the cell population A and the cell population B were connected via neurites. A raster plot that visualizes synchronized firing patterns is illustrated in FIG. 17. In addition, FIG. 16 illustrates a raster plot for visualizing firing patterns of respective cell populations cultured by plating on a board alone.
# The mixture was allowed to stand for 10 minutes in a CO2 incubator at 37° C.
# For respective cell populations in the above section “3.” which were treated with the drug, action potentials detectable from the electrodes were measured for 5 minutes with the MED64 system. The results are illustrated in FIG. 18.
# [3] = 10 μM final concentration, 10 minutes at 37° C., populations A and B connected via neurites, FIG. 8
# [4] = 10 μM, neurites between A and B cut, 10 minutes stabilization, FIG. 9
molecule,measurement,setting,value
"N[C@H](CCCP(=O)(O)O)C(=O)O [D-AP5, D-(−)-2-amino-5-phosphonopentanoic acid]",firing pattern of the cell population A (short-cycle firing),[1]; [3],firing in a short cycle disappeared
same,synchronization of the firing pattern of cell population A with cell population B,[1]; [3],became a firing pattern synchronized in the form of the same cycle and peak as those of the cell population B
same,firing pattern of the cell population B after cutting the neurites,[1]; [4],does not change
same,synchronous firing period of the cell population A after cutting the neurites,[1]; [4],greatly prolonged
picrotoxin,cycle of the synchronous firing pattern compared with before drug treatment,[2],significantly shorter cycle than that before the drug treatment
same,synchronization between cell population A and cell population B,[2],remained synchronized
